The source made the active and inactive calls. The calls are words filed in the database; no cut-off is given here.
Assays:
[1] = Drug accumulation in mouse 4T1 cells implanted female BALB/c mouse tumor at 0.5 mg/kg, iv after 2 hrs by fluorescence detector; format: ADME, organism-based, Neoplasm; details: in vivo
[2] = Toxicity in iv dosed female BALB/c mouse assessed as maximum tolerated dose administered once daily for 14 consecutive days; format: organism-based; details: in vivo, time 14 day
[3] = Drug accumulation in mouse 4T1 cells implanted female BALB/c mouse lung at 0.5 mg/kg, iv by fluorescence detector; format: ADME, organism-based; details: in vivo
[4] = Toxicity in female BALB/c mouse assessed as body weight loss at 0.2 to 1.2 mg/kg, iv administered once daily for 14 consecutive days; format: organism-based; details: in vivo, 336 h, dose 0.2-1.2 mg/kg, time 14 day
Mus musculus [5] = experiment: Antitumor activity against mouse 4T1 cells implanted in female BALB/c mouse assessed as increase in body weight at 0.5 mg/kg, iv administered twice a week for 2 weeks; format: functional, organism-based
4T1 [6] = experiment: Antitumor activity against mouse 4T1 cells implanted in female BALB/c mouse assessed as reduction on tumor volume at 0.5 mg/kg, iv administered twice a week for 2 weeks; format: functional, organism-based
[7] = Drug accumulation in mouse 4T1 cells implanted female BALB/c mouse kidney at 0.5 mg/kg, iv by fluorescence detector; format: ADME, organism-based; details: in vivo
4T1 [8] = experiment: Antitumor activity against mouse 4T1 cells implanted in female BALB/c mouse assessed as inhibition of tumor growth at 0.5 mg/kg, iv administered twice a week for 2 weeks measured on day 18; format: functional; design: scale not given: the % may be the effect or the level left; details: time 18 day
albumin [9] = target: T1, albumin (Homo sapiens, UniProt P02768); experiment: Protein binding in human serum albumin measured after 0.25 mins by HPLC analysis; format: ADME, cell-free; details: read-out: PPB (converted)
[10] = Toxicity in mouse 4T1 cells implanted in female BALB/c mouse assessed as pathological changes in liver at 0.6 to 1.2 mg/kg, iv by H and E staining based analysis; format: organism-based; details: in vivo, dose 0.6-1.2 mg/kg
[11] = Drug distribution in mouse 4T1 cells implanted in female BALB/c mouse assessed as fold change in tumor at 1.2 mg/kg, iv measured after 6 hrs by fluorescence detector; format: ADME, organism-based, Neoplasm; details: in vivo
[12] = Toxicity in mouse 4T1 cells implanted in female BALB/c mouse assessed as pathological changes in lung at 0.6 to 1.2 mg/kg, iv by H and E staining based analysis; format: organism-based; details: in vivo, dose 0.6-1.2 mg/kg
4T1 [13] = experiment: Antiproliferative activity against mouse 4T1 cells assessed as reduction on cell proliferation in presence of beta-glucuronidase measured after 72 hrs by MTT assay; format: functional, cell-based
MCF7 [14] = experiment: Antiproliferative activity against human MCF7 cells assessed as reduction on cell proliferation measured after 72 hrs by MTT assay; format: functional, cell-based
4T1 [15] = experiment: Antitumor activity against mouse 4T1 cells implanted in female BALB/c mouse assessed as tumor cell apoptosis at 0.6 to 1.2 mg/kg, iv by TUNEL staining based fluorescence assay; format: functional, organism-based; details: dose 0.6-1.2 mg/kg
[16] = Drug distribution in mouse 4T1 cells implanted in female BALB/c mouse assessed as fold change in tumor at 1.2 mg/kg, iv measured after 2 hrs by fluorescence detector; format: ADME, organism-based, Neoplasm; details: in vivo
4T1 [17] = experiment: Antitumor activity against mouse 4T1 cells implanted in female BALB/c mouse assessed as inhibition of tumor growth at 1.2 mg/kg, iv administered twice a week for 2 weeks measured on day 18; format: functional; design: scale not given: the % may be the effect or the level left; details: time 18 day
[18] = Toxicity in female BALB/c mouse assessed as body weight loss at 1 to 10 mg/kg, iv administered once daily for 14 consecutive days; format: organism-based; details: in vivo, 336 h, dose 1-10 mg/kg, time 14 day
4T1 [19] = experiment: Antitumor activity against mouse 4T1 cells implanted in female BALB/c mouse assessed as inhibition of tumor growth at 0.6 to 1.2 mg/kg, iv by Ki67 staining based assay; format: functional, organism-based; details: dose 0.6-1.2 mg/kg
[20] = Plasma protein binding in female BALB/c mouse measured after 0.25 mins by HPLC analysis; format: ADME, cell-free; details: read-out: PPB (converted)
4T1 [21] = experiment: Antiproliferative activity against mouse 4T1 cells assessed as reduction on cell proliferation measured after 72 hrs by MTT assay; format: functional, cell-based
[22] = Drug accumulation in mouse 4T1 cells implanted female BALB/c mouse tumor at 1.2 mg/kg, iv after 6 hrs by fluorescence detector; format: ADME, organism-based, Neoplasm; details: in vivo
[23] = Plasma protein binding in female BALB/c mouse measured after 2 mins by HPLC analysis; format: ADME, cell-free; details: read-out: PPB (converted)
[24] = Plasma protein binding in human measured after 0.25 mins by HPLC analysis; format: ADME, cell-free; details: read-out: PPB (converted)
[25] = Plasma protein binding in male Sprague-Dawley rat measured after 0.25 mins by HPLC analysis; format: ADME, cell-free; details: read-out: PPB (converted)
[26] = Toxicity in mouse 4T1 cells implanted in female BALB/c mouse assessed as pathological changes in heart at 0.6 to 1.2 mg/kg, iv by H and E staining based analysis; format: organism-based; details: in vivo, dose 0.6-1.2 mg/kg
HCT-116 [27] = experiment: Antiproliferative activity against human HCT-116 cells assessed as reduction on cell proliferation measured after 72 hrs by MTT assay; format: functional, cell-based
[28] = Toxicity in mouse 4T1 cells implanted in female BALB/c mouse assessed as pathological changes in kidney at 0.6 to 1.2 mg/kg, iv by H and E staining based analysis; format: organism-based; details: in vivo, dose 0.6-1.2 mg/kg
HCT-116 [29] = experiment: Antiproliferative activity against human HCT-116 cells assessed as reduction on cell proliferation in presence of beta-glucuronidase measured after 72 hrs by MTT assay; format: functional, cell-based
A549 [30] = experiment: Antiproliferative activity against human A549 cells assessed as reduction on cell proliferation in presence of beta-glucuronidase measured after 72 hrs by MTT assay; format: functional, cell-based
albumin [31] = target: T1, albumin; experiment: Protein binding in human serum albumin measured after 8 mins by HPLC analysis; format: ADME, cell-free; details: read-out: PPB (converted)
4T1 [32] = experiment: Antitumor activity against mouse 4T1 cells implanted in female BALB/c mouse assessed as inhibition of tumor growth at 0.6 mg/kg, iv administered twice a week for 2 weeks measured on day 18; format: functional; design: scale not given: the % may be the effect or the level left; details: time 18 day
[33] = Drug distribution in mouse 4T1 cells implanted in female BALB/c mouse assessed as fold change in tumor at 1.2 mg/kg, iv measured after 48 hrs by fluorescence detector; format: ADME, organism-based, Neoplasm; details: in vivo
MCF7 [34] = experiment: Antiproliferative activity against human MCF7 cells assessed as reduction on cell proliferation in presence of beta-glucuronidase measured after 72 hrs by MTT assay; format: functional, cell-based
HepG2 [35] = experiment: Antiproliferative activity against human HepG2 cells assessed as reduction on cell proliferation in presence of beta-glucuronidase measured after 72 hrs by MTT assay; format: functional, cell-based
A549 [36] = experiment: Antiproliferative activity against human A549 cells assessed as reduction on cell proliferation measured after 72 hrs by MTT assay; format: functional, cell-based
4T1 [37] = experiment: Antitumor activity against mouse 4T1 cells implanted in female BALB/c mouse assessed as reduction on tumor volume at 0.6 to 1.2 mg/kg, iv administered twice a week for 2 weeks; format: functional, organism-based; details: dose 0.6-1.2 mg/kg
HepG2 [38] = experiment: Antiproliferative activity against human HepG2 cells assessed as reduction on cell proliferation measured after 72 hrs by MTT assay; format: functional, cell-based
[39] = Plasma protein binding in human measured after 2 mins by HPLC analysis; format: ADME, cell-free; details: read-out: PPB (converted)
[40] = Drug distribution in mouse 4T1 cells implanted in female BALB/c mouse assessed as fold change in tumor at 1.2 mg/kg, iv measured after 24 hrs by fluorescence detector; format: ADME, organism-based, Neoplasm; details: in vivo
Mus musculus [41] = experiment: Antitumor activity against mouse 4T1 cells implanted in female BALB/c mouse assessed as increase in body weight at 0.6 to 1.2 mg/kg, iv administered twice a week for 2 weeks; format: functional, organism-based; details: dose 0.6-1.2 mg/kg
[42] = Plasma protein binding in male Sprague-Dawley rat measured after 2 mins by HPLC analysis; format: ADME, cell-free; details: read-out: PPB (converted)
[43] = Toxicity in mouse 4T1 cells implanted in female BALB/c mouse assessed as pathological changes in spleen at 0.6 to 1.2 mg/kg, iv by H and E staining based analysis; format: organism-based; details: in vivo, dose 0.6-1.2 mg/kg

T1 sequence (P02768 whole entry): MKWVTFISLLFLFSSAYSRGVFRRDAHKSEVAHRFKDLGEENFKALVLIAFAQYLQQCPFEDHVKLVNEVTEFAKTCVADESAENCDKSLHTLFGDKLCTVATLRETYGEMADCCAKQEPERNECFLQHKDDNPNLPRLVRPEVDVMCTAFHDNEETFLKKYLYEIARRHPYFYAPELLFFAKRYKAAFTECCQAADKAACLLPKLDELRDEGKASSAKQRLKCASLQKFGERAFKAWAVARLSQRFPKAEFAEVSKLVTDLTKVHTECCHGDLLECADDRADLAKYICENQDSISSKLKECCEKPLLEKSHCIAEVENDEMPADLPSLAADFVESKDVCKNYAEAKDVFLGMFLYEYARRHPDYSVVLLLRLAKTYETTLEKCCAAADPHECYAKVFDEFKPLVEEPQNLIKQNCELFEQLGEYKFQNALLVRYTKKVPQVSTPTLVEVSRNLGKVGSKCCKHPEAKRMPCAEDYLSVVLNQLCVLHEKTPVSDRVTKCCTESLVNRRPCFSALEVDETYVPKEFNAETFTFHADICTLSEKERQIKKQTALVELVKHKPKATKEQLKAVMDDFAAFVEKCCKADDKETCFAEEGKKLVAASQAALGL

In the case of CC[C@@]1(O)C(=O)OCc2c1cc1n(c2=O)Cc2c-1nc1cc3c(cc1c2-c1ccncc1)OCO3, the Drug uptake [1] is reported as 1.09%, the MTD at 336 h [2] is reported as 0.4 mg/kg and the Drug uptake [3] is reported as “Active”. The Activity [4] was 10%, the Activity (Mus musculus [5]) was “Active” and the Activity (4T1 [6]) was “Active”. The Drug uptake [7] was “Active” and the Activity (4T1 [8]) was 27%.
For CC[C@@]1(O)C(=O)OCc2c1cc1n(c2=O)Cc2c-1nc1cc3c(cc1c2-c1cc[n+](Cc2ccc(O[C@@H]4O[C@@H](C(=O)O)[C@@H](O)[C@H](O)[C@H]4O)c(NC(=O)CCCn4cc(CNC(=O)CCCCCN5C(=O)C=CC5=O)nn4)c2)cc1)OCO3.O=C([O-])C(F)(F)F, the fraction unbound at 15 s (albumin [9]) was 0.0679, the Activity [10] was “Non-Toxic” and the “fold change (FC)” value [11] was 18. The MTD at 336 h [2] was 2.5 mg/kg, the Activity [12] was “Non-Toxic” and the Activity (4T1 [13]) was “Active”. The Activity (MCF7 [14]) was “Active”, the Activity (4T1 [15]) was “Active” and the “fold change (FC)” value [16] was 9. The Activity (4T1 [17]) was 77%, the Activity [18] was 10% and the Activity (4T1 [19]) was “Active”. For the same compound, the fraction unbound at 15 s [20] was 0.0723, the Activity (4T1 [21]) was “Active” and the Drug uptake [22] was 17.34%. It also gave a fraction unbound at 2 min [23] of 0.0512, a fraction unbound at 15 s [24] of 0.034 and a fraction unbound at 15 s [25] of 0.0224. For the same compound, the Activity [26] was “Non-Toxic”, the Activity (HCT-116 [27]) was “Active” and the Activity [28] was “Non-Toxic”. For the same compound, the Activity (HCT-116 [29]) was “Active”, the Activity (A549 [30]) was “Active” and the fraction unbound at 8 min (albumin [31]) was 0.015. For the same compound, the Activity (4T1 [32]) was 56%, the “fold change (FC)” value [33] was 14 and the Activity (MCF7 [34]) was “Active”. The Activity (HepG2 [35]) was “Active”, the Activity (A549 [36]) was “Active” and the Activity (4T1 [37]) was “Active”. The Activity (HepG2 [38]) was “Active”, the fraction unbound at 2 min [39] was 0.0291 and the “fold change (FC)” value [40] was 16. For the same compound, the Activity (Mus musculus [41]) was “Active”, the fraction unbound at 2 min [42] was 0.0188 and the Activity [43] was “Non-Toxic”.

From ChEMBL document CHEMBL5038609, “A camptothecin-based, albumin-binding prodrug enhances efficacy and safety in vivo” (Eur J Med Chem, 2021)
